As a reminder, the IC50 is the midpoint of a concentration-inhibition curve. In general, melting point refers to the temperature of the solid-liquid transition.

From patent US8063028B2, “Heterocyclic antiviral compounds” (Roche Palo Alto LLC, priority 2007, dated 2011) come the findings set out here.

Counter-ions that a name gives are not always drawn.

For one data set, the target named is HIV-1 RT (Human immunodeficiency virus type 1 group M subtype B, UniProt P04585). Description: HIV reverse transcriptase assay, inhibitor IC50 determination. The format is biochemical. As to conditions: purified recombinant enzyme, poly(rA)/oligo(dT)16 template-primer, 37° C. 30 min. As to the method: Reactions were initiated by adding 4 nM HIV-1 RT and after incubation at 37° C. for 30 min, they were stopped by the addition of 50 μl ice cold 20% TCA and allowed to precipitate at 4° C. for 30 min. The precipitates were collected by applying vacuum to the plate and sequentially washing with 3×200 μl of 10% TCA and 2×200 μl 70% ethanol. Finally, the plates were dried and radioactivity counted in a Packard TopCounter after the addition of 25 μl scintillation fluid per well. IC50's were calculated by plotting % inhibition versus log10 inhibitor concentrations. Representative IC50 data is depicted in TABLE 2.
Consider `N#Cc1cc(Cl)cc(Oc2c(Br)ccc(Cc3nn(COC(=O)CCC(=O)O)c4nnccc34)c2F)c1` [Compound I-3, Succinic acid mono-{3-[4-bromo-3-(3-chloro-5-cyano-phenoxy)-2-fluoro-benzyl]-pyrazolo[3,4-c]pyridazin-1-ylmethyl}ester], for which the IC50 was 4.9 nM.
As to `N#Cc1cc(Cl)cc(Oc2c(Cl)ccc(Cc3nn(COC(=O)CCC(=O)O)c4nnccc34)c2F)c1` [Compound I-5, Succinic acid mono-{3-[4-chloro-3-(3-chloro-5-cyano-phenoxy)-2-fluoro-benzyl]-pyrazolo[3,4-c]pyridazin-1-ylmethyl}ester], the IC50 worked out at 7.4 nM.

Tested on in the next data set: not given
Experiment: not given
Settings: not given
With `CC(CN(C)C)OC(=O)n1nc(Cc2ccc(Br)c(Oc3cc(Cl)cc(C#N)c3)c2F)c2ccnnc21` (centres unmarked) (as salt: hydrochloride) [Compound I-13, 3-[4-Bromo-3-(3-chloro-5-cyano-phenoxy)-2-fluoro-benzyl]-pyrazolo[3,4-c]pyridazine-1-carboxylic acid 2-dimethylamino-1-methyl-ethyl ester], the melting point was in the range of 119 to 122 °C.
The compound `N#Cc1cc(Cl)cc(Oc2c(Br)ccc(Cc3nn(COC(=O)CCC(=O)O)c4nnccc34)c2F)c1` (as salt: sodium) [Compound I-3, Succinic acid mono-{3-[4-bromo-3-(3-chloro-5-cyano-phenoxy)-2-fluoro-benzyl]-pyrazolo[3,4-c]pyridazin-1-ylmethyl}ester] had a melting point of 172.6 to 173.9 °C.
`N#Cc1cc(Cl)cc(Oc2c(Br)ccc(Cc3nn(COC(=O)CCC(=O)O)c4ncccc34)c2F)c1` [Compound I-1, Succinic acid mono-{3-[4-bromo-3-(3-chloro-5-cyano-phenoxy)-2-fluoro-benzyl]-pyrazolo[3,4-b]pyridin-1-ylmethyl}ester] showed a melting point of 183 to 184 °C.
`N#Cc1cc(C#N)cc(Oc2c(Br)ccc(Cc3nn(COC(=O)CCC(=O)O)c4nnccc34)c2F)c1` [Compound I-4, Succinic acid mono-{3-[4-bromo-3-(3,5-dicyano-phenoxy)-2-fluoro-benzyl]-pyrazolo[3,4-c]pyridazin-1-ylmethyl}ester] gave a melting point of 175.2 to 176.5 °C.
On to `N#Cc1cc(Cl)cc(Oc2c(Cl)ccc(Cc3nn(COC(=O)CCC(=O)O)c4nnccc34)c2F)c1` [Compound I-5, Succinic acid mono-{3-[4-chloro-3-(3-chloro-5-cyano-phenoxy)-2-fluoro-benzyl]-pyrazolo[3,4-c]pyridazin-1-ylmethyl}ester], for which the melting point fell in the range of 173 to 174.8 °C.
As for `COC(=O)n1nc(Cc2ccc(Br)c(Oc3cc(Cl)cc(C#N)c3)c2F)c2ccnnc21` [Compound I-6, 3-[4-Bromo-3-(3-chloro-5-cyano-phenoxy)-2-fluoro-benzyl]-pyrazolo[3,4-c]pyridazine-1-carboxylic acid methyl ester], the melting point is 164 to 165 °C.
As for `N#Cc1cc(Cl)cc(Oc2c(Br)ccc(Cc3nn(COC(=O)CCCC(=O)O)c4nnccc34)c2F)c1` [Compound I-7, Pentanedioic acid mono-{3-[4-bromo-3-(3-chloro-5-cyano-phenoxy)-2-fluoro-benzyl]-pyrazolo[3,4-c]pyridazin-1-ylmethyl}ester], the melting point was 149.8 to 150.7 °C.
`CC(=O)OCn1nc(Cc2ccc(Br)c(Oc3cc(Cl)cc(C#N)c3)c2F)c2ccnnc21` [Compound I-8, Acetic acid 3-[4-bromo-3-(3-chloro-5-cyano-phenoxy)-2-fluoro-benzyl]-pyrazolo[3,4-c]pyridazin-1-ylmethyl ester] showed a melting point of 71.1 to 73 °C.
Compound `CC(C)[C@H](N)C(=O)OCn1nc(Cc2ccc(Br)c(Oc3cc(Cl)cc(C#N)c3)c2F)c2ccnnc21.Cl` [Compound I-9, (S)-2-Amino-3-methyl-butyric acid 3-[4-bromo-3-(3-chloro-5-cyano-phenoxy)-2-fluoro-benzyl]-pyrazolo[3,4-c]pyridazin-1-ylmethyl ester] registered a melting point of 155 to 156 °C.
For `N#Cc1cc(Cl)cc(Oc2c(Br)ccc(Cc3nn(COC(=O)COCC(=O)O)c4nnccc34)c2F)c1` [Compound I-10, {3-[4-Bromo-3-(3-chloro-5-cyano-phenoxy)-2-fluoro-benzyl]-pyrazolo[3,4-c]pyridazin-1-ylmethoxycarbonylmethoxy}-acetic acid], the melting point was in the range of 146 to 147 °C.
As for `CCOC(=O)n1nc(Cc2ccc(Br)c(Oc3cc(Cl)cc(C#N)c3)c2F)c2ccnnc21` [Compound I-11, 3-[4-Bromo-3-(3-chloro-5-cyano-phenoxy)-2-fluoro-benzyl]-pyrazolo[3,4-c]pyridazine-1-carboxylic acid ethyl ester], the melting point lay in the range of 139 to 140 °C.
`N#Cc1cc(C#N)cc(Oc2c(Cl)ccc(Cc3nn(COC(=O)CCC(=O)O)c4nnccc34)c2F)c1` [Compound I-12, Succinic acid mono-{3-[4-chloro-3-(3,5-dicyano-phenoxy)-2-fluoro-benzyl]-pyrazolo[3,4-c]pyridazin-1-ylmethyl}ester] returned a melting point of 166.1 to 169.9 °C.
Regarding `N#Cc1cc(Cl)cc(Oc2c(Cl)ccc(Cc3nn(COC(=O)CCCC(=O)O)c4nnccc34)c2F)c1` [Compound I-14, Pentanedioic acid mono-{3-[4-chloro-3-(3-chloro-5-cyano-phenoxy)-2-fluoro-benzyl]-pyrazolo[3,4-c]pyridazin-1-ylmethyl}ester], the melting point was in the range of 176 to 178 °C.
On to `N#Cc1cc(Cl)cc(Oc2c(Br)ccc(Cc3nn(COC(=O)CCCCC(=O)O)c4nnccc34)c2F)c1` [Compound I-15, Hexanedioic acid mono-{3-[4-bromo-3-(3-chloro-5-cyano-phenoxy)-2-fluoro-benzyl]-pyrazolo[3,4-c]pyridazin-1-ylmethyl}ester], for which the melting point fell in the range of 159 to 160 °C.
`CC(=O)n1nc(Cc2ccc(Br)c(Oc3cc(Cl)cc(C#N)c3)c2F)c2ccnnc21` [Compound I-16, 3-[3-(1-Acetyl-1H-pyrazolo[3,4-c]pyridazin-3-ylmethyl)-6-bromo-2-fluoro-phenoxy]-5-chloro-benzonitrile] displayed a melting point of 195.5 to 196.9 °C.
`N#Cc1cc(Cl)cc(Oc2c(Br)ccc(Cc3nn(C(=O)c4cccnc4)c4nnccc34)c2F)c1` [Compound I-17, 3-{6-Bromo-2-fluoro-3-[1-(pyridine-3-carbonyl)-1H-pyrazolo[3,4-c]pyridazin-3-ylmethyl]-phenoxy}-5-chloro-benzonitrile] displayed a melting point of 187.7 to 188.5 °C.
Take `CC(C)OC(=O)n1nc(Cc2ccc(Br)c(Oc3cc(Cl)cc(C#N)c3)c2F)c2ccnnc21` [Compound I-20, 3-[4-Bromo-3-(3-chloro-5-cyano-phenoxy)-2-fluoro-benzyl]-pyrazolo[3,4-c]pyridazine-1-carboxylic acid isopropyl ester]: the melting point is 166.1 to 166.9 °C.
The compound `CC(C)C(=O)n1nc(Cc2ccc(Br)c(Oc3cc(Cl)cc(C#N)c3)c2F)c2ccnnc21` [Compound I-21, 3-[6-Bromo-2-fluoro-3-(1-isobutyryl-1H-pyrazolo[3,4-c]pyridazin-3-ylmethyl)-phenoxy]-5-chloro-benzonitrile] gave a melting point of 157.7 to 159.3 °C.
